Patent US20260216352A1, “DIRECTED BIOSYNTHESIS OF MODIFIED ANTHRAQUINONE-FUSED ENEDIYNES AS POTENTIAL CANCER THERAPEUTICS” (The Johns Hopkins University, priority 2023, published 2026)

Legend:
cancer cells = conditions: read-out: In vitro IC50; cited from earlier work
[1] = test system: transplantable cervical carcinoma HeLa, leukemia P388, L-1210 and melanoma B16; conditions: cited from earlier work
wild type M. chersina = experiment: Small-scale supplementation of wild type M. chersina fermentation and analysis of dynemicin A production; set-up: species or system Micromonospora chersina; conditions: for Restoration of Dyn production: wild type M. chersina, no added NaI / sodium halide in the fermentation medium
Procedure: Samples cut from medium 53 agar were used to inoculate 50 mL liquid medium 53 cultures. The cultures were shaken at 28° C. for seven days. Then, samples from these vegetative cultures were used to inoculate H881 media (10 g/L soluble starch, 5 g/L Pharmamedia, 1 g/L CaCO3, 0.05 g/L CuSO4·5 H2O and 0.0005 g/L NaI) for fermentation. These cultures were then shaken at 28° C. for 7 days.
Samples (5 mL) of fermentations were extracted with 5 mL of ethyl acetate by vortexing the emulsion for one minute and separating the layers by centrifugation at 4000×g. The ethyl acetate layer (4 mL) was isolated and dried by SpeedVac at room temperature. The residue was then resuspended in 200 μL of dimethyl sulfoxide and filtered through 0.2 μm polytetrafluoroethylene filters for analysis on an Agilent 1200 HPLC equipped with a Phenomenex Prodigy ODS3 100 Å, 5 μm, 250×4.6 mm column. Injections were 30 μL and separated with a gradient method increasing from 5% to 95% acetonitrile supplemented with 0.1% formic acid over 40 min, followed by a 10 min hold at 95% acetonitrile before re-equilibration. The method was run at 1 mL/min and monitored at 280, 375, 450 and 570 nm.
Wild type M. chersina mycelial stock […] was plated on med 53, Lam et al., 1995, with 2% agar and grown at 28° C. After 7 d, mycelia from the plate were inoculated into 50 mL med 53 liquid fermentation medium in a 125 mL Erlenmeyer flask and shaken at 250 rpm at 28° C. for another 7 d. This starter culture (2 mL) was inoculated into 50-mL H881 liquid medium, Lam et al., 1995, with or without added NaI (0.5 mg/L) in 250-mL Erlenmeyer flask and shaken at 250 rpm and 28° C. After 24 h, […] of 2-mM stock solutions of 5, 13 and 25 in DMSO (sterile filtered using 0.2-μm PTFE filters) were added to the respective flasks with or without NaI supplementation to provide a final concentration of the added compounds of […]. After shaking at 250 rpm and 28° C. for another 2 d, Diaion® HP-20 (0.50 g, sterilized by autoclave) was added to each flask and shaking was continued for another 4 d. After a total 7 d of fermentation, 5 mL from each sample was extracted with 5 mL of EtOAc by vortexing for 1 min. Extracts were centrifuged at 4000×g and 4° C. for 5 min, and 4 mL of each EtOAc layer was dried by SpeedVac without heating. Samples were dissolved in 200 μL DMSO, filtered through 0.2 μm PTFE filters and analyzed on an Agilent 1200 HPLC using a Prodigy ODS3 100 Å, […], 250×4.6 mm column (Phenomenex). A gradient method of 5-95% ACN+0.1% (v/v) formic acid over 40 min, followed by 10 min hold at 95% ACN before column re-equilibration was used at a 1 mL/min flow rate to achieve separation of metabolites. Production of dynemicin and other related metabolites was monitored at 280 nm, 450 nm, and 570 nm. […]

[2] = type: physicochemical
Text: With the indication that substituents larger than two carbons probably are not tolerated by the mutasynthetic approach, we focused on repurposing the methyl ketone to generate other smaller substituents. […] Removal of the acetyl protecting group in refluxing HCl-ethanol solution provided the 9-amino-5-iodoanthracene-g-thiolactone 45 (Scheme 4). Incorporation of 45 in a Δorf15 fermentation was again successful, as hoped, producing deshydroxy amino-DYN analogue 50 as the major product, accompanied by the low production of the desdihydroxy DYN analogue 51 (FIG. 31).

Row | Compound | IC50 (cancer cells) [nM] | In vivo ID50 [1] [mg/kg] | Restoration of Dyn production (wild type M. chersina) | also measured
1 | Neocarzinostatin | 225 to 900 | 0.38 |  | 
2 | Nc1ccc2c3c(c4ccccc4cc13)SC2=O [aminoanthracene 25, 5-Amino-2H-anthra[9,1-bc]thiophen-2-one] |  |  | failed to rescue Dyn production | 
3 | Nc1ccc2cc3c(I)ccc4c3c(c2c1)SC4=O [Compound 45, 9-Amino-5-iodo-2H-anthra[9,1-bc]thiophen-2-one] |  |  |  | Oxidative stability [2]: oxidatively unstable
4 | O=C1Sc2c3ccccc3cc3c(Br)ccc1c23 [bromoanthracene 13, 5-Bromo-2H-anthra[9,1-bc]thiophen-2-one] |  |  | not restored | Effect on Dyn production (wild type M. chersina; wild type M. chersina fermentation medium with added sodium iodide, increasing concentrations of 13): decrease Dyn production
5 | O=C1Sc2c3ccccc3cc3c(I)ccc1c23 [iodoanthracene 5, 5-Iodo-2H-anthra[9,1-bc]thiophen-2-one] |  |  | fully restored Dyn production | 
6 | Calicheamicins | 6 to 9 | 0.0005 to 0.0015 |  | 
